# Assay results as given in patent US20200331882A1, “COMPOUND FOR SIMULTANEOUSLY INHIBITING LSD1 AND HDAC TARGETS AND APPLICATION THEREOF” (PEKING UNIVERSITY SHENZHEN GRADUATE SCHOOL, priority 2018, published 2020).
# Read-outs that look alike come from different tables or passages of the source.
# Legend:
# [1] = tested on: MIA PaCa-2; test: CellTiter-Glo cell proliferation; format: cell-based; conditions: CTG, 72 hours; for % inhibition at top conc.: highest concentration 10/50 μM; for IC50: read-out: Absolute IC50
# Description: (§1) The effect of the present invention compound ZZY-003 on the cell proliferation of 50 cell lines was evaluated by CellTiter-Glo (CTG) method, and the 50% inhibitory concentration was calculated by detecting the cell viability after treatment with different drug concentrations. The cells were resuscitated and cultured in their respective culture media. The cells in logarithmic growth phase were harvested and the cells were counted by cell counter. The cell viability was detected by Trypan blue exclusion method to ensure that the cell line viability was more than 96%. The cell concentration was adjusted by diluting with the culture medium, and 90 μL cell suspension was added to the 96-well cell plate (including the cell control T0 on the day of drug treatment) to make the cell density reach the specified concentration. The cells in the 96-well plate were cultured overnight at 37° C., 5% CO2 and 95% humidity. 10 μL culture medium was added to the control cell culture plate. CellTiter-Glo reagent and cell culture plate were placed at room temperature to balance for 30 minutes. The same volume of CellTiter-Glo reagent was added to each well. Vibrate on the orbital shaker for 2 min to make the cells fully lytic. The cell culture plate was placed at room temperature to balance for 10 minutes. Chemiluminescence values were read with EnVision. The storage solution was formed by dissolving the tested compound with the corresponding solvent and diluted in gradient to obtain 10 times working concentration solution, and 10 times solution of positive drug was also prepared. 10 μL drug solution was added to each well in the 96-well plate in which the cells were inoculated, and each cell concentration was provided with three duplicate wells. The highest concentration of the tested compound was 10/50 μM, 9 concentrations and 3.16 times dilution. The cells in the 96-well plate added with drug were cultured at 37° C., 5% CO2 and 95% humidity for 72 hours. CellTiter-Glo reagent and drug-treated cell culture plate were placed at room temperature to balance for 30 minutes. The same volume of CellTiter-Glo reagent was added to each well. Vibrate on the orbital shaker for 2 minutes to make the cells fully lytic. The cell culture plate was placed at room temperature to balance for 10 minutes. Chemiluminescence values were read with EnVision. Data processing: […] Cell survival rate (%)=(Lum drug to be detected−Lum culture medium control)/(Lum cell control−Lum culture medium control)×100%; Lum cell control−Lum culture medium control was set to 100%, LumMedium control value was set to 0%;
# [2] = tested on: JVM-3; test: CellTiter-Glo cell proliferation; format: cell-based; conditions: CTG, 72 hours; for % inhibition at top conc.: highest concentration 10/50 μM; for IC50: read-out: Absolute IC50
# Description: as §1
# [3] = tested on: SNU-5; test: CellTiter-Glo cell proliferation; format: cell-based; conditions: CTG, 72 hours; for % inhibition at top conc.: highest concentration 10/50 μM; for IC50: read-out: Absolute IC50
# Description: as §1
# [4] = tested on: 786-O; test: CellTiter-Glo cell proliferation; format: cell-based; conditions: 72 hours; for % inhibition at top conc.: highest concentration 10/50 μM; for IC50: read-out: Absolute IC50
# Description: as §1
# [5] = tested on: NCI-H1299; test: CellTiter-Glo cell proliferation; format: cell-based; conditions: CTG, 72 hours; for % inhibition at top conc.: highest concentration 10/50 μM; for IC50: read-out: Absolute IC50
# Description: as §1
# [6] = tested on: NCI-H82; test: CellTiter-Glo cell proliferation; format: cell-based; conditions: CTG, 72 hours; for % inhibition at top conc.: highest concentration 10/50 μM; for IC50: read-out: Absolute IC50
# Description: as §1
# [7] = tested on: 5637; test: CellTiter-Glo cell proliferation; format: cell-based; conditions: CTG, 72 hours; for % inhibition at top conc.: highest concentration 10/50 μM; for IC50: read-out: Absolute IC50
# Description: as §1
# [8] = tested on: SU-DHL-6; test: CellTiter-Glo cell proliferation; format: cell-based; conditions: CTG, 72 hours; for % inhibition at top conc.: highest concentration 10/50 μM; for IC50: read-out: Absolute IC50
# Description: as §1
# [9] = tested on: OE19; test: CellTiter-Glo cell proliferation; format: cell-based; conditions: CTG, 72 hours; for % inhibition at top conc.: highest concentration 10/50 μM; for IC50: read-out: Absolute IC50
# Description: as §1
# [10] = tested on: Jurkat clone E6-1; test: CellTiter-Glo cell proliferation; format: cell-based; conditions: CTG, 72 hours; for % inhibition at top conc.: highest concentration 10/50 μM; for IC50: read-out: Absolute IC50
# Description: as §1
# [11] = tested on: LP-1; test: CellTiter-Glo cell proliferation; format: cell-based; conditions: CTG, 72 hours; for % inhibition at top conc.: highest concentration 10/50 μM; for IC50: read-out: Absolute IC50
# Description: as §1
# [12] = tested on: SF268; test: CellTiter-Glo cell proliferation; format: cell-based; conditions: 72 hours; for % inhibition at top conc.: highest concentration 10/50 μM; for IC50: read-out: Absolute IC50
# Description: as §1
# [13] = tested on: AMO-1; test: CellTiter-Glo cell proliferation; format: cell-based; conditions: 72 hours; for % inhibition at top conc.: highest concentration 10/50 μM; for IC50: read-out: Absolute IC50
# Description: as §1
# [14] = tested on: AZ-521; test: CellTiter-Glo cell proliferation; format: cell-based; conditions: CTG, 72 hours; for % inhibition at top conc.: highest concentration 10/50 μM; for IC50: read-out: Absolute IC50
# Description: as §1
# [15] = tested on: 143B; test: CellTiter-Glo cell proliferation; format: cell-based; conditions: CTG, 72 hours; for % inhibition at top conc.: highest concentration 10/50 μM; for IC50: read-out: Absolute IC50
# Description: as §1
# [16] = tested on: MDA-MB-453; test: CellTiter-Glo cell proliferation; format: cell-based; conditions: CTG, 72 hours; for % inhibition at top conc.: highest concentration 10/50 μM; for IC50: read-out: Absolute IC50
# Description: as §1
# [17] = tested on: HuCCT1; test: CellTiter-Glo cell proliferation; format: cell-based; conditions: 72 hours; for % inhibition at top conc.: highest concentration 10/50 μM; for IC50: read-out: Absolute IC50
# Description: as §1
# [18] = tested on: OPM2; test: CellTiter-Glo cell proliferation; format: cell-based; conditions: 72 hours; for % inhibition at top conc.: highest concentration 10/50 μM; for IC50: read-out: Absolute IC50
# Description: as §1
# [19] = tested on: MCF 10A; test: CellTiter-Glo cell proliferation; format: cell-based; conditions: CTG, 72 hours; for % inhibition at top conc.: highest concentration 10/50 μM; for IC50: read-out: Absolute IC50
# Description: as §1
# [20] = tested on: EBC-1; test: CellTiter-Glo cell proliferation; format: cell-based; conditions: CTG, 72 hours; for % inhibition at top conc.: highest concentration 10/50 μM; for IC50: read-out: Absolute IC50
# Description: as §1
# [21] = tested on: Ramos; test: CellTiter-Glo cell proliferation; format: cell-based; conditions: CTG, 72 hours; for % inhibition at top conc.: highest concentration 10/50 μM; for IC50: read-out: Absolute IC50
# Description: as §1
# [22] = biological target: T1, HDAC1 (Homo sapiens, UniProt Q13547); test: In vitro HDAC1 inhibitory activity, FLUOR DE LYS HDAC1 fluorometric assay kit; format: biochemical; conditions: HDAC1 enzyme activity in vitro
# T1 construct: purchased Enzo Biochem Inc
# T1 sequence (Q13547 whole entry): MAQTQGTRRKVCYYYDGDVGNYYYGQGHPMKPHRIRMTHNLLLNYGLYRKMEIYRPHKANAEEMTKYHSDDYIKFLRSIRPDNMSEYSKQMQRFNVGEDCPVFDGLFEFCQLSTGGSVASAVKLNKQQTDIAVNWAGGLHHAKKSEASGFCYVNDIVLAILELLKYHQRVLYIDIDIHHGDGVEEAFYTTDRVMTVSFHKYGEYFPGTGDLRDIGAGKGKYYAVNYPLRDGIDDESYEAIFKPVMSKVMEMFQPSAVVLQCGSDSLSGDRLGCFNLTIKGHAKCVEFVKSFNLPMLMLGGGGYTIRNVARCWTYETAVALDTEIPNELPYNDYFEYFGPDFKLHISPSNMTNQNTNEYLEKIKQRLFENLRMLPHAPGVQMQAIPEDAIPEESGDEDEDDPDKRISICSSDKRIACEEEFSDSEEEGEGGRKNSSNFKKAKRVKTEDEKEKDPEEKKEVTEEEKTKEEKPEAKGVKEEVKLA
# Description: The principle was shown in the following reaction formula: HDAC1 catalyzes the deacetylation of a substrate FLUOR DE LYS® Substrate (containing an acetylated side chain), the product can react with FLUOR DE LYS® Developer II to generate fluorescence (shown in the following reaction process), and the inhibitory activity of a molecule to be detected on HDAC1 can be indirectly obtained by detecting the fluorescence intensity of the product. In this experiment, 360 nm was selected as the excitation wavelength and 460 nm as the emission wavelength for detection. FLUOR DE LYS® HDAC1 fluorometric drug discovery assay kit required for experiments was purchased from Enzo Biochem Inc.
# During the test, the sample was prepared according to the specific experimental conditions of blocking the HDAC1 enzyme activity of the compound of the present invention in vitro in accordance with Table 2 below.
compound,measurement,setting,value
"N.N.[Cl][Pt][Cl] [Cisplatin, reference compound]",% inhibition at top conc.,[1],99.18%
same,IC50,[1],6.05 µM
same,% inhibition at top conc.,[2],99.71%
same,IC50,[2],0.7 µM
same,% inhibition at top conc.,[3],97.87%
same,IC50,[3],2.45 µM
same,% inhibition at top conc.,[4]; CTG,97.88%
same,IC50,[4]; CTG,2.11 µM
same,% inhibition at top conc.,[5],98.91%
same,IC50,[5],3.69 µM
same,% inhibition at top conc.,[6],99.63%
same,IC50,[6],4 µM
same,% inhibition at top conc.,[7],99.05%
same,IC50,[7],2.6 µM
same,% inhibition at top conc.,[8],99.95%
same,IC50,[8],5.65 µM
same,% inhibition at top conc.,[9],62.99%
same,IC50,[9],25.8 µM
same,% inhibition at top conc.,[10],99.96%
same,IC50,[10],0.84 µM
same,% inhibition at top conc.,[11],99.89%
same,IC50,[11],8.68 µM
same,% inhibition at top conc.,[12]; CTG,97.98%
same,IC50,[12]; CTG,2.87 µM
same,% inhibition at top conc.,[13]; CTG,99.99%
same,IC50,[13]; CTG,0.95 µM
same,% inhibition at top conc.,[14],99.92%
same,IC50,[14],2.89 µM
same,% inhibition at top conc.,[15],99.94%
same,IC50,[15],1.15 µM
same,% inhibition at top conc.,[16],95.15%
same,IC50,[16],12.9 µM
same,% inhibition at top conc.,[17]; CTG,89.54%
same,IC50,[17]; CTG,11.3 µM
same,% inhibition at top conc.,[18]; CTG,99.97%
same,IC50,[18]; CTG,3.67 µM
same,% inhibition at top conc.,[19],99.51%
same,IC50,[19],13.2 µM
same,% inhibition at top conc.,[20],85.11%
same,IC50,[20],17.8 µM
same,% inhibition at top conc.,[21],99.98%
same,IC50,[21],1.78 µM
Cc1ccc(C(=O)Nc2cc(N3CCNCC3)ccc2-c2ccc(/C=C/C(=O)NO)cc2C)cc1.Cl [ZZY-003],IC50,[22],0.18 µM
same,% inhibition at top conc.,[1],99.94%
same,IC50,[1]; Homo sapiens,0.48 µM
same,% inhibition at top conc.,[2],99.48%
same,IC50,[2]; Homo sapiens,0.35 µM
same,% inhibition at top conc.,[3],99.83%
same,IC50,[3]; Homo sapiens,1.64 µM
same,% inhibition at top conc.,[4]; CTG,99.96%
same,IC50,"[4]; Homo sapiens, 786-0, CTG",3.91 µM
same,% inhibition at top conc.,[5],99.94%
same,IC50,[5]; Homo sapiens,3.4 µM
same,% inhibition at top conc.,[6],99.94%
same,IC50,[6]; Homo sapiens,0.37 µM
same,% inhibition at top conc.,[7],99.95%
same,IC50,[7],0.82 µM
same,% inhibition at top conc.,[8],99.91%
same,IC50,[8]; Homo sapiens,0.3 µM
same,% inhibition at top conc.,[9],98.95%
same,IC50,[9]; Homo sapiens,0.78 µM
same,% inhibition at top conc.,[10],99.61%
same,IC50,[10]; Homo sapiens,0.48 µM
same,% inhibition at top conc.,[11],98.94%
same,IC50,[11]; Homo sapiens,0.26 µM
same,% inhibition at top conc.,[12]; CTG,99.82%
same,IC50,"[12]; Homo sapiens, SF-268, CTG",1.09 µM
same,% inhibition at top conc.,[13]; CTG,99.95%
same,IC50,"[13]; Homo sapiens, AMO1, CTG",1.52 µM
same,% inhibition at top conc.,[14],99.95%
same,IC50,[14]; Homo sapiens,0.68 µM
same,% inhibition at top conc.,[15],99.97%
same,IC50,[15]; Homo sapiens,2.25 µM
same,% inhibition at top conc.,[16],99.93%
same,IC50,[16]; Homo sapiens,0.19 µM
same,% inhibition at top conc.,[17]; CTG,99.88%
same,IC50,"[17]; Homo sapiens, HuCCT-1, CTG",1.35 µM
same,% inhibition at top conc.,[18]; CTG,98.99%
same,IC50,"[18]; Homo sapiens, OPM-2, CTG",0.35 µM
same,% inhibition at top conc.,[19],97.73%
same,IC50,[19]; Homo sapiens,1.49 µM
same,% inhibition at top conc.,[20],92.30%
same,IC50,[20]; Homo sapiens,1.15 µM
same,% inhibition at top conc.,[21],99.82%
same,IC50,[21]; Homo sapiens,0.32 µM
